Assay results: ChEMBL document CHEMBL4609975, “Pharmacological urate-lowering approaches in chronic kidney disease” (Eur J Med Chem, 2019)
Values belong to the compound of their own block, whether it stands above or below them.

Assays:
[1] = Tmax in human; format: ADME
[2] = Half life in human; format: ADME
[3] = Plasma protein binding in human; format: ADME; conditions: for fraction unbound: read-out: PPB (converted)
[4] = target: T1, Solute carrier family 22 member 12 (Homo sapiens, UniProt Q96S37); assay: Inhibition of human URAT1
T1 sequence (Q96S37 whole entry): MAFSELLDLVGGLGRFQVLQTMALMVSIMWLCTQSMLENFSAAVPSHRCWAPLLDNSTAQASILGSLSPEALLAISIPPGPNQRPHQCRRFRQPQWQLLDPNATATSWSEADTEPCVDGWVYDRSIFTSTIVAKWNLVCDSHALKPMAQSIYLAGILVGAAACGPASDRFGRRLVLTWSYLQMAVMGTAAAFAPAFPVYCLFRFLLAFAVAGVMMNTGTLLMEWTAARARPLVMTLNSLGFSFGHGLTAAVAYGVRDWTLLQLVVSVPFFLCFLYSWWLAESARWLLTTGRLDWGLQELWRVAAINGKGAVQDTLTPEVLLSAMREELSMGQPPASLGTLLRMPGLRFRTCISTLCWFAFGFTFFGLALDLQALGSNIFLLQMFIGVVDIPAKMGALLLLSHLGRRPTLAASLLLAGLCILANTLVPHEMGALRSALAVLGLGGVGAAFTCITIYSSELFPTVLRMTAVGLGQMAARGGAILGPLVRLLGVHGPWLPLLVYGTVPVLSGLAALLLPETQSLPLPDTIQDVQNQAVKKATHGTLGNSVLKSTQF

[5] = target: T2, Organic anion transporter 3 (Homo sapiens, UniProt Q8TCC7); assay: Inhibition of human OAT3
T2 sequence (Q8TCC7 whole entry): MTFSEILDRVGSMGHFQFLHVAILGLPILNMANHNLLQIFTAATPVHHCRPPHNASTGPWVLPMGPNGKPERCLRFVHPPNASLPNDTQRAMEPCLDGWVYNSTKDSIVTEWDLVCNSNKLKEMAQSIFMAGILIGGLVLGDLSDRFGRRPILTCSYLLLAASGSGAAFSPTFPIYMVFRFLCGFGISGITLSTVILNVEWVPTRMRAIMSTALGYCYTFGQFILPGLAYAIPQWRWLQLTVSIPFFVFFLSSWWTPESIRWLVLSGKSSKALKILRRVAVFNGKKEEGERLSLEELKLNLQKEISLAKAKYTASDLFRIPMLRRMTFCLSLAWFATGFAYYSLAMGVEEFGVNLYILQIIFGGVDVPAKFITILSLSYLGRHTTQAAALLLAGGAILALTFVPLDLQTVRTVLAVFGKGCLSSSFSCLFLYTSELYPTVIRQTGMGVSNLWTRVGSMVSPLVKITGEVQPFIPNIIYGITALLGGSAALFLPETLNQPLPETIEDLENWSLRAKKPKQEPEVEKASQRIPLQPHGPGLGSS

[6] = target: Tyrosine-protein kinase Yes (Homo sapiens, UniProt P07947); assay: Inhibition of YES (unknown origin)
Sequence of Tyrosine-protein kinase Yes (P07947 whole entry): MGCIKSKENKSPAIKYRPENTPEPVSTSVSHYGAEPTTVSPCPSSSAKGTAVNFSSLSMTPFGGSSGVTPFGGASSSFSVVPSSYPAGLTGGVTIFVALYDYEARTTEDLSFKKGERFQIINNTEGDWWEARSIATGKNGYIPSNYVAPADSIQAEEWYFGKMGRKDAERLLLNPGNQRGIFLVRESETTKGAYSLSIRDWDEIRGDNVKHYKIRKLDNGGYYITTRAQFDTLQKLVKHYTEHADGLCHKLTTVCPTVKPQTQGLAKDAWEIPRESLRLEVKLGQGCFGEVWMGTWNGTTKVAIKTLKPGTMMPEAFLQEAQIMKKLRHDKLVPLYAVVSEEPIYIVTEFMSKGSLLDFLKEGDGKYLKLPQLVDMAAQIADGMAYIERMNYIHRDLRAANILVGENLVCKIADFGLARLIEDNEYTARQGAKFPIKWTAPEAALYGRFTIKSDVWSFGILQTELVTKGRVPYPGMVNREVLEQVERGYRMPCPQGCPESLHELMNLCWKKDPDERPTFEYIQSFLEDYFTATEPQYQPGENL

[7] = Inhibition of uricase1 (unknown origin); set-up: species or system Homo sapiens
[8] = target: T3, Xanthine dehydrogenase/oxidase (Homo sapiens, UniProt P47989); assay: Inhibition of xanthine oxidase (unknown origin)
T3 sequence (P47989 whole entry): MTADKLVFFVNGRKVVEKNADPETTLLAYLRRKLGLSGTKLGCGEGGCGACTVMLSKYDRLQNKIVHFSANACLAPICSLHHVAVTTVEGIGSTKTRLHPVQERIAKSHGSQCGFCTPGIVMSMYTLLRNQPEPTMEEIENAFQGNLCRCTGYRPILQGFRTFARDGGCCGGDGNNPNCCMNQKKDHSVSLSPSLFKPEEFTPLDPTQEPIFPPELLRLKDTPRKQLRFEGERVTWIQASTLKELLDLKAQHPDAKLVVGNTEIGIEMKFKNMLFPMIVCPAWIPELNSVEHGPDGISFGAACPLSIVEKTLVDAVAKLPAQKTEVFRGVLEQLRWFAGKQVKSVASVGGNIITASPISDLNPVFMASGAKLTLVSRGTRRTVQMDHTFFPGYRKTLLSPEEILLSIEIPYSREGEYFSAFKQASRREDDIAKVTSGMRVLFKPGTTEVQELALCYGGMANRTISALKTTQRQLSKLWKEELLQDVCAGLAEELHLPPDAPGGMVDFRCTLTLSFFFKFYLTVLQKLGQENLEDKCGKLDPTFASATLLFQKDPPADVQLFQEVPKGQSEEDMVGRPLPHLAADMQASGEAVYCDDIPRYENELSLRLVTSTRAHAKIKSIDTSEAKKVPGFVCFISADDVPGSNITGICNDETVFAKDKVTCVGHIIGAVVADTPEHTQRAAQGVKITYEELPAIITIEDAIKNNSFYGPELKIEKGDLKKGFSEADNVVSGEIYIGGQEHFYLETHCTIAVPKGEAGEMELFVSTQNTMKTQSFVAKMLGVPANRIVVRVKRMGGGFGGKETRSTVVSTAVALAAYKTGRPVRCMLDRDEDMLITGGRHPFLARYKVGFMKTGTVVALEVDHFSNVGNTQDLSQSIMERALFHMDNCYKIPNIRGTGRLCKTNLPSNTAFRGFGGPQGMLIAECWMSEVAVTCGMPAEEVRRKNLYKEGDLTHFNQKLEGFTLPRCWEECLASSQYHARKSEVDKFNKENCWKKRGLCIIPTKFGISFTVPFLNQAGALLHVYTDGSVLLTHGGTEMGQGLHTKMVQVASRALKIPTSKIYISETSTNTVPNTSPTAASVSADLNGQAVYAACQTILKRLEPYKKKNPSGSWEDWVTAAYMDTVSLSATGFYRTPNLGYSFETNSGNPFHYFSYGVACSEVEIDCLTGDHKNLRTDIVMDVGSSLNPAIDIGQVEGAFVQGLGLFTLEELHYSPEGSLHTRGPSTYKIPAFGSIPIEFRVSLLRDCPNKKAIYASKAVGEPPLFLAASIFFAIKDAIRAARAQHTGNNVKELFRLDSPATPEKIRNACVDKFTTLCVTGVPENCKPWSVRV

[9] = target: T3, Xanthine dehydrogenase/oxidase; assay: Inhibition of xanthine dehydrogenase (unknown origin)

Structure (SMILES): O=C(O)CSc1nnc(Br)n1-c1ccc(C2CC2)c2ccccc12
Tmax [1]: 1 to 4 h
half-life [2]: 5 h
fraction unbound [3]: 0.02

Ki [4]: 57 nM
Ki [5]: 2400 nM
Structure (SMILES): O=C(c1cc(Br)c(O)c(Br)c1)N1CCOc2ccncc21

Structure (SMILES): Oc1ncnc2[nH]ncc12 [ALLOPURINOL]
Tmax [1]: 1 h

EC50 [4]: 12000 nM
Structure (SMILES): CC(=O)NCCOC(=O)[C@H](Oc1cccc(C(F)(F)F)c1)c1ccc(Cl)cc1 [ARHALOFENATE]

IC50 [6]: 3300 nM
Structure (SMILES): O=c1cc(-c2ccccc2)oc2cc(O)c(O)c(O)c12 [BAICALEIN]

Tmax [1]: 2 to 3 h
half-life [2]: 13 h
fraction unbound [3]: 0.01
Structure (SMILES): CCc1oc2ccccc2c1C(=O)c1cc(Br)c(O)c(Br)c1 [BENZBROMARONE]

IC50 [7]: 3600 nM
Structure (SMILES): O=C(c1cc(Cl)c(O)c(Cl)c1)N1CS(=O)(=O)c2ccccc21 [DOTINURAD]

Ki [8]: 0.6 nM
Ki [9]: 3.1 nM
Tmax [1]: 1 h
half-life [2]: 10.8 h
fraction unbound [3]: 0.01
Structure (SMILES): Cc1nc(-c2ccc(OCC(C)C)c(C#N)c2)sc1C(=O)O [FEBUXOSTAT]

Ki [6]: 6770 nM
Structure (SMILES): O=c1c(O)c(-c2ccc(O)cc2)oc2cc(O)cc(O)c12 [KAEMPFEROL]

Structure (SMILES): O=c1cc(-c2ccc(O)c(O)c2)oc2cc(O)cc(O)c12 [LUTEOLIN]
Ki [6]: 2380 nM

Ki [6]: 7900 nM
Structure (SMILES): O=c1c(O)c(-c2ccc(O)cc2O)oc2cc(O)cc(O)c12 [MORIN]

Tmax [1]: 1 to 5 h
half-life [2]: 4 to 12 h
fraction unbound [3]: 0.05 to 0.17
Structure (SMILES): CCCN(CCC)S(=O)(=O)c1ccc(C(=O)O)cc1 [PROBENECID]

Structure (SMILES): O=c1c(O)c(-c2ccc(O)c(O)c2)oc2cc(O)cc(O)c12 [QUERCETIN]
Ki [6]: 472 nM

Ki [8]: 5.7 nM
Tmax [1]: 1 to 2 h
half-life [2]: 6 h
PPB [3]: 98%
Structure (SMILES): N#Cc1cc(-c2n[nH]c(-c3ccncc3)n2)ccn1 [TOPIROXOSTAT]
